Measurements taken from ChEMBL document CHEMBL1201862, “PubChem BioAssay data set” (2004).
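In this assay, cells in 96-well plates receive the compound at five concentrations for 48 hours. Endpoints are linearly interpolated between the surrounding concentrations. GI50: concentration for 50% inhibition of growth.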 Activity calls are given as the source filed them. Cut-off read from the data, not from the text of the source: active = GI50 up to about 1.1 µM and inactive = higher.

Assays:
Assay in all cases: DTP human tumour cell line panel, 48 h
[1] = tested on: DMS-273
[2] = tested on: M19-MEL
[3] = tested on: XF498
[4] = tested on: HOP-18
[5] = tested on: DLD-1
[6] = tested on: DMS-114
[7] = tested on: SNB-78
[8] = tested on: RXF 631
[9] = tested on: LXFL 529

Measured: GI50

COc1ccccc1/N=N/c1c(-c2ccccc2)nn(C(=O)CC(=O)Nc2cccc(C)c2)c1-c1ccccc1
inactive: [1] 34.5 µM | [2] 35.8 µM | [3] 16.4 µM | [4] > 100 µM | [5] 25.8 µM | [6] 14.7 µM | [7] 61.8 µM | [8] 7.4 µM | [9] 15.4 µM

COc1ccc([C@@H]2OC(=O)C3C2C(=O)O[C@H]3c2ccc(OC)cc2)cc1 (stereo partly drawn)
inactive: [1] > 100 µM | [2] > 100 µM | [3] > 100 µM | [4] > 100 µM | [5] > 100 µM | [6] > 100 µM | [7] > 100 µM | [8] > 100 µM | [9] > 100 µM
